The results in this text go back to article PMC10150926, “PHT427 as an effective New Delhi metallo-β-lactamase-1 (NDM-1) inhibitor restored the susceptibility of meropenem against Enterobacteriaceae producing NDM-1” (Frontiers in Microbiology, 2023).

Holding throughout (type): binding
The target of test [1] is T1, New Delhi metallo-β-lactamase-1 (NDM-1) (Klebsiella pneumoniae, UniProt C7C422).
T1 construct: gene blaNDM-1
Kind of test: SPR (also fluorescence quenching; purified enzyme inhibition with meropenem, IC50 […]).

The target of test [2] is T2, New Delhi metallo-β-lactamase-1 (NDM-1) (Klebsiella pneumoniae, UniProt C7C422, Q123A).
T2 construct: gene blaNDM-1
Kind of test: SPR.

Test [3] addresses T3, New Delhi metallo-β-lactamase-1 (NDM-1) (Klebsiella pneumoniae, UniProt C7C422, N220A).
T3 construct: gene blaNDM-1
Kind of test: SPR. On the technique in general: Surface plasmon resonance follows binding to a sensor surface in real time, without labels.

The term Kd denotes the equilibrium constant for the complex coming apart. Read a low Kd as higher affinity. With `CCCCCCCCCCCCc1ccc(S(=O)(=O)Nc2nncs2)cc1` [PHT427, 4-dodecyl-N-1,3,4-thiadiazol-2-yl-benzenesulfonamide], the Kd in test [1] was 62.8 µM; in test [2] it was 124 µM; in test [3], 896 µM.
